Literature values as cited in patent US6551611B2, “Hormone replacement therapy method” (Schering Aktiengesellschaft, priority 1995, dated 2003).

Details: oral administration

Structure (SMILES): C[C@]12CC[C@@H]3c4ccc(O)cc4CC[C@H]3[C@@H]1CC[C@@H]2O [estradiol]
- bioavailability of estradiol orally, average: 5 % of the oral dose
